# Results as given in patent US20150105252A1, “SUBSTITUTED PYRAZOLES AS HERBICIDES” (E I DU PONT DE NEMOURS AND COMPANY, priority 2013, published 2015).
# Key:
# johnsongrass = experiment: Test F preemergence; type: in vivo, Sorghum halepense
# Source text: (§1) Seeds of plant species selected from corn (Zea mays), soybean (Glycine max), velvetleaf (Abutilon theophrasti), lambsquarters (Chenopodium album), wild poinsettia (Euphorbia heterophylla), pigweed, palmer (palmer pigweed, Amaranthus palmeri), common waterhemp (Amaranthus rudis), surinam grass (Brachiaria decumbens), large crabgrass (Digitaria sanguinalis), crabgrass, Brazil (Brazilian crabgrass, Digitaria horizontalis), fall panicum (Panicum dichotomiflorum), giant foxtail (Setaria faberii), green foxtail (Setaria viridis), goosegrass (Eleusine indica), johnsongrass (Sorghum halepense), common ragweed (Ambrosia elation), barnyardgrass (Echinochloa crus-galli), southern sandbur (Cenchrus echinatus), arrowleaf sida (Sida rhombifolia), Italian ryegrass (Lolium multiflorum), dayflower, VA (Virginia (VA) dayflower, Commelina virginica), field bindweed (Convolvulus arvensis), cocklebur (common cocklebur, Xanthium strumarium), morningglory (Ipomoea coccinea), nightshade (eastern black nightshade, Solanum ptycanthum), kochia (Kochia scoparia), yellow nutsedge (Cyperus esculentus), and hairy beggarticks (Bidens pilosa), were planted into a silt loam soil and treated preemergence with test chemicals formulated in a non-phytotoxic solvent mixture which included a surfactant.
# (§2) At the same time, plants from these crop and weed species and also horseweed (Canada horseweed, Conyza canadensis), smartweed (ladysthumb smartweed, Polygonum persicaria), waterhemp_RES1, (ALS & Triazine resistant common waterhemp, Amaranthus rudis), and waterhemp_RES2, (ALS & HPPD resistant common waterhemp, Amaranthus rudis) were treated with postemergence applications of test chemicals formulated in the same manner. Plants ranged in height from 2 to 18 cm for postemergence treatments (1- to 4-leaf stage). Treated plants and controls were maintained in a greenhouse for 14 to 21 days, after which time all species were compared to controls and visually evaluated. Plant response ratings, summarized in Table F, are based on a scale of 0 to 100 where 0 is no effect and 100 is complete control. A dash (-) response means no test result.
# blackgrass = experiment: Test D preemergence; type: in vivo, Alopecurus myosuroides; settings: scale 0 to 100
# Source text: (§3) Seeds of plant species selected from bluegrass (annual bluegrass, Poa annua), blackgrass (Alopecurus myosuroides), canarygrass (littleseed canarygrass, Phalaris minor), chickweed (common chickweed, Stellaria media), galium (catchweed bedstraw, Galium aparine), bromegrass, downy (downy bromegrass, Bromus tectorum), field poppy (Papaver rhoeas), field violet (Viola arvensis), foxtail, green (green foxtail, Setaria viridis), deadnettle (henbit deadnettle, Lamium amplexicaule), ryegrass, Italian (Italian ryegrass, Lolium multiflorum), kochia (Kochia scoparia), lambsquarters (Chenopodium album), oilseed rape (Brassica napus), pigweed (redroot pigweed, Amaranthus retroflexus), chamomile (scentless chamomile, Matricaria inodora), speedwell (bird's-eye speedwell, Veronica persica), barley, spring (spring barley, Hordeum vulgare), wheat, spring (spring wheat, Triticum aestivum), buckwheat, wild (wild buckwheat, Polygonum convolvulus), mustard, wild (wild mustard, Sinapis arvensis), oat, wild (wild oat, Avena fatua), radish, wild (wild radish, Raphanus raphanistrum), windgrass (Apera spica-venti), Russian thistle (Salsola kali), barley, winter (winter barley, Hordeum vulgare), and wheat, winter (winter wheat, Triticum aestivum) were planted into a silt loam soil and treated preemergence with test chemicals formulated in a non-phytotoxic solvent mixture which included a surfactant.
# (§4) At the same time, these species were planted in pots containing Redi-Earth® planting medium (Scotts Company, 14111 Scottslawn Road, Marysville, Ohio 43041) comprising spaghnum peat moss, vermiculite, wetting agent and starter nutrients and treated with postemergence applications of the test chemicals formulated in the same manner. Plants ranged in height from 2 to 18 cm (1- to 4-leaf stage). Treated plants and controls were maintained in a controlled growth environment for 14 to 21 days after which time all species were compared to controls and visually evaluated. Plant response ratings, summarized in Table D, are based on a scale of 0 to 100 where 0 is no effect and 100 is complete control. A dash (-) response means no test result.
# field poppy = experiment: Test D preemergence; type: in vivo, Papaver rhoeas; settings: scale 0 to 100
# In short: (§5)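 Pre: sown in silt loam, sprayed at once. Post: grown in peat-moss/vermiculite mix, sprayed at 1–4 leaves (2–18 cm). Formulation: non-phytotoxic solvent + surfactant. Read-out: visual 0–100 vs controls, 14–21 d.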
# barnyardgrass = experiment: Test F preemergence; type: in vivo, Echinochloa crus-galli
# In short: (§6)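 Formulated in surfactant-containing non-phytotoxic solvent; pre: applied to seeded silt loam; post: applied to plants 2–18 cm (1–4 leaves); greenhouse 14–21 d; visual 0–100 rating vs controls.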
# bromegrass, downy = experiment: Test D preemergence; type: in vivo, Bromus tectorum; settings: scale 0 to 100
# Source text: as §3, §4
# corn = experiment: Test F preemergence; type: in vivo, Zea mays
# Source text: as §1, §2
# green foxtail = experiment: Test F preemergence; type: in vivo, Setaria viridis
# In short: as §6
# field violet = experiment: Test D preemergence; type: in vivo, Viola arvensis; settings: scale 0 to 100
# In short: as §5
# barley, spring = experiment: Test D postemergence; type: in vivo, Hordeum vulgare; settings: scale 0 to 100
# In short: as §5
# barley, winter = experiment: Test D postemergence; type: in vivo, Hordeum vulgare; settings: scale 0 to 100
# In short: as §5
# crabgrass, Brazil = experiment: Test F preemergence; type: in vivo, Digitaria horizontalis
# Source text: as §1, §2
# speedwell = experiment: Test D postemergence; type: in vivo, Veronica persica; settings: scale 0 to 100
# Source text: as §3, §4
# oilseed rape [1] = experiment: Test D postemergence; type: in vivo, Brassica napus; settings: scale 0 to 100
# In short: as §5
# oilseed rape [2] = experiment: Test D preemergence; type: in vivo, Brassica napus; settings: scale 0 to 100
# Source text: as §3, §4
# [3] = Preemergence, 31 g ai/ha, scale 0 to 100
# [4] = Preemergence, 62 g ai/ha, scale 0 to 100
# [5] = Preemergence, 125 g ai/ha, scale 0 to 100
# [6] = preemergence, 8 g ai/ha, scale 0 to 100, 100 is complete control
# [7] = preemergence, 16 g ai/ha, scale 0 to 100, 100 is complete control
compound,measurement,setting,value
"CCc1cc(C(=O)NCC(F)(F)F)nn1Cc1ccnc(C(F)(F)F)c1 [Compound 78, 5-ethyl-N-(2,2,2-trifluoroethyl)-1-[[(2-trifluoromethyl)-4-pyridinyl]methyl]-1H-pyrazole-3-carboxamide]","Plant response rating, Johnsongrass",johnsongrass; [3],30
same,"Plant response rating, Johnsongrass",johnsongrass; [4],95
same,"Plant response rating, Johnsongrass",johnsongrass; [5],100
same,"Plant response rating, Johnsongrass",johnsongrass; [6],20
same,"Plant response rating, Johnsongrass",johnsongrass; [7],20
same,"Plant response rating, Blackgrass",blackgrass; 31 g ai/ha,35
same,"Plant response rating, Blackgrass",blackgrass; 62 g ai/ha,70
same,"Plant response rating, Blackgrass",blackgrass; 125 g ai/ha,80
same,"Plant response rating, Blackgrass",blackgrass; 250 g ai/ha,100
same,"Plant response rating, Field Poppy",field poppy; 31 g ai/ha,100
same,"Plant response rating, Field Poppy",field poppy; 62 g ai/ha,100
same,"Plant response rating, Field Poppy",field poppy; 125 g ai/ha,100
same,"Plant response rating, Field Poppy",field poppy; 250 g ai/ha,100
same,"Plant response rating, Barnyardgrass",barnyardgrass; [3],35
same,"Plant response rating, Barnyardgrass",barnyardgrass; [4],98
same,"Plant response rating, Barnyardgrass",barnyardgrass; [5],100
same,"Plant response rating, Barnyardgrass",barnyardgrass; [6],0
same,"Plant response rating, Barnyardgrass",barnyardgrass; [7],25
same,"Plant response rating, Bromegrass, Downy","bromegrass, downy; 31 g ai/ha",10
same,"Plant response rating, Bromegrass, Downy","bromegrass, downy; 62 g ai/ha",20
same,"Plant response rating, Bromegrass, Downy","bromegrass, downy; 125 g ai/ha",70
same,"Plant response rating, Bromegrass, Downy","bromegrass, downy; 250 g ai/ha",75
same,"Plant response rating, Corn",corn; [3],20
same,"Plant response rating, Corn",corn; [4],65
same,"Plant response rating, Corn",corn; [5],70
same,"Plant response rating, Corn",corn; [6],0
same,"Plant response rating, Corn",corn; [7],10
same,"Plant response rating, Green Foxtail",green foxtail; [3],60
same,"Plant response rating, Green Foxtail",green foxtail; [4],100
same,"Plant response rating, Green Foxtail",green foxtail; [5],100
same,"Plant response rating, Green Foxtail",green foxtail; [6],10
same,"Plant response rating, Green Foxtail",green foxtail; [7],60
same,"Plant response rating, Field Violet",field violet; 31 g ai/ha,100
same,"Plant response rating, Field Violet",field violet; 62 g ai/ha,100
same,"Plant response rating, Field Violet",field violet; 125 g ai/ha,100
same,"Plant response rating, Field Violet",field violet; 250 g ai/ha,100
same,"Barley, Spring plant response rating","barley, spring; Postemergence, 31 g ai/ha",0
same,"Barley, Spring plant response rating","barley, spring; Postemergence, 125 g ai/ha",10
same,"Barley, Spring plant response rating","barley, spring; Postemergence, 250 g ai/ha",30
same,"Barley, Spring plant response rating","barley, spring; postemergence, 62 g ai/ha",0
same,"Barley, Winter plant response rating","barley, winter; Postemergence, 31 g ai/ha",5
same,"Barley, Winter plant response rating","barley, winter; Postemergence, 125 g ai/ha",15
same,"Barley, Winter plant response rating","barley, winter; Postemergence, 250 g ai/ha",25
same,"Barley, Winter plant response rating","barley, winter; postemergence, 62 g ai/ha",10
same,"Plant response rating, Crabgrass, Brazil","crabgrass, Brazil; [3]",100
same,"Plant response rating, Crabgrass, Brazil","crabgrass, Brazil; [4]",100
same,"Plant response rating, Crabgrass, Brazil","crabgrass, Brazil; [5]",100
same,"Plant response rating, Crabgrass, Brazil","crabgrass, Brazil; [6]",30
same,"Plant response rating, Crabgrass, Brazil","crabgrass, Brazil; [7]",70
same,Speedwell plant response rating,"speedwell; Postemergence, 31 g ai/ha",45
same,Speedwell plant response rating,"speedwell; Postemergence, 125 g ai/ha",80
same,Speedwell plant response rating,"speedwell; Postemergence, 250 g ai/ha",90
same,Speedwell plant response rating,"speedwell; postemergence, 62 g ai/ha",60
same,Oilseed Rape plant response rating,"oilseed rape [1]; Postemergence, 31 g ai/ha",35
same,Oilseed Rape plant response rating,"oilseed rape [1]; Postemergence, 125 g ai/ha",60
same,Oilseed Rape plant response rating,"oilseed rape [1]; Postemergence, 250 g ai/ha",80
same,Oilseed Rape plant response rating,"oilseed rape [1]; postemergence, 62 g ai/ha",50
same,"Plant response rating, Oilseed Rape",oilseed rape [2]; 31 g ai/ha,35
same,"Plant response rating, Oilseed Rape",oilseed rape [2]; 62 g ai/ha,80
same,"Plant response rating, Oilseed Rape",oilseed rape [2]; 125 g ai/ha,100
same,"Plant response rating, Oilseed Rape",oilseed rape [2]; 250 g ai/ha,100
